PubChem BioAssay AID1259411 (Chemical Carcinogenesis Research Information System (CCRIS), 2018)
Activity calls are given as the source filed them. No rule for the calls is given here.

Tested on: rodent carcinogenicity bioassays, tumor incidence
Test: CCRIS carcinogenicity studies
Text: The CCRIS database contains chemical records with carcinogenicity, mutagenicity, tumor promotion, and tumor inhibition test results. It was developed by the National Cancer Institute (NCI). Data are derived from studies cited in primary journals, current awareness tools, NCI reports, and other sources. Test results have been reviewed by experts in carcinogenesis and mutagenesis.
CCRIS provides historical information from the years 1985 - 2011. It is no longer updated.
This is an archive assay for CCRIS carcinogenicity studies.

## O=C(O)C(Br)Br
Species: Mouse, Strain/Sex: B6C3F1/Female, Route: Oral, Dose: 0, 50, 500, 1,000 mg/l in drinking water for 2 yr, Dose: 0, 50, 500, 1,000 mg/l in drinking water for 2 yr, Tumor Site: Type of Lesion: Liver: Hepatocellular adenoma (19/49; 26/50; 32/50; 35/49), Hepatocellular carcinoma (3/49, 3/50, 12/50, 8/49), Hepatoce, Tumor Site: Type of Lesion: Liver: Hepatocellular adenoma (19/49; 26/50; 32/50; 35/49), Hepatocellular carcinoma (3/49, 3/50, 12/50, 8/49), Hepatoce
  carcinogen call: active; positive (ntp reports as clear evidence)
Species: Mouse, Strain/Sex: B6C3F1/Male, Route: Oral, Dose: 0, 50, 500, 1,000 mg/l in drinking water for 2 yr, Dose: 0, 50, 500, 1,000 mg/l in drinking water for 2 yr, Tumor Site: Type of Lesion: Liver: Hepatocellular adenoma (18/49; 37/50; 42/50), Hepatocellular carcinoma (14/49, 9/50, 19/50, 26/50), Hepato, Tumor Site: Type of Lesion: Liver: Hepatocellular adenoma (18/49; 37/50; 42/50), Hepatocellular carcinoma (14/49, 9/50, 19/50, 26/50), Hepato
  carcinogen call: active; positive (ntp reports as clear evidence)
Species: Rat, Strain/Sex: F344/N/Female, Route: Oral, Dose: 0, 50, 500, 1000 mg/l in drinking water for 2 yr, Dose: 0, 50, 500, 1000 mg/l in drinking water for 2 yr, Tumor Site: Type of Lesion: All organs: Mononuclear cell leukemia (11/50, 13/50, 16/50, 22/50)
  carcinogen call: active; positive trend (not statistically significant) (ntp reports as some evidence)
Species: Rat, Strain/Sex: F344/N/Male, Route: Oral, Dose: 0, 50, 500, 1000 mg/l in drinking water continuous for 2 yr, Dose: 0, 50, 500, 1000 mg/l in drinking water continuous for 2 yr, Tumor Site: Type of Lesion: All organs: Malignant mesothelioma (3/50, 1/50, 0/50, 10/50), Mononuclear cell leukemia (17/50, 31/50, 24/50, 13/50)
  carcinogen call: active; positive (malignant mesothelioma) (ntp reports as some evidence); mononuclear ce

## S=[Se]
Species: MOUSE, Strain/Sex: B6C3F1/FEMALE, Route: GAVAGE, Dose: 0, 20, 100 MG/KG IN 0.5% AQ CMC, Dose: 0, 20, 100 MG/KG IN 0.5% AQ CMC, Tumor Site: Type of Lesion: LUNG: ALVEOLAR/BRONCHIOLAR ADENOMA OR CARCINOMA, LIVER: HEPATOCELLULAR CARCINOMA
  carcinogen call: active; positive
Species: MOUSE, Strain/Sex: B6C3F1/MALE, Route: GAVAGE, Dose: 0, 20, 100 MG/KG IN 0.5% AQ CMC, Dose: 0, 20, 100 MG/KG IN 0.5% AQ CMC
  carcinogen call: inactive; negative
Species: MOUSE, Strain/Sex: ICR/FEMALE, Route: DERMAL, Dose: 0, 0.5, 1.0 MG/KG IN SALINE SOLN CONT 0.5% CMC 3/WK FOR 86 WK, Dose: 0, 0.5, 1.0 MG/KG IN SALINE SOLN CONT 0.5% CMC 3/WK FOR 86 WK
  carcinogen call: inactive; negative
Species: MOUSE, Strain/Sex: ICR/MALE, Route: DERMAL, Dose: 0, 0.5, 1.0 MG/KG IN SALINE SOLN CONT 0.5% CMC 3/WK FOR 86 WK, Dose: 0, 0.5, 1.0 MG/KG IN SALINE SOLN CONT 0.5% CMC 3/WK FOR 86 WK
  carcinogen call: inactive; negative
Species: RAT, Strain/Sex: F344/FEMALE, Route: GAVAGE, Dose: 0, 3, 15 MG/KG IN 0.5% AQ CMC, Dose: 0, 3, 15 MG/KG IN 0.5% AQ CMC, Tumor Site: Type of Lesion: LIVER: HEPATOCELLULAR CARCINOMA OR NEOPLASTIC NODULE
  carcinogen call: active; positive
Species: RAT, Strain/Sex: F344/MALE, Route: GAVAGE, Dose: 0, 3, 15 MG/KG IN 0.5% AQ CMC, Dose: 0, 3, 15 MG/KG IN 0.5% AQ CMC, Tumor Site: Type of Lesion: LIVER: HEPATOCELLULAR CARCINOMA OR NEOPLASTIC NODULE
  carcinogen call: active; positive

## Clc1cccc(-c2cccc(Cl)c2)c1
Species: RAT, Strain/Sex: WISTAR/MALE, Route: ORAL, Dose: 0, 100 PPM IN DIET FOR DURATION OF STUDY (STUDY DURATION: 832 D)
  carcinogen call: inactive; negative

## Nc1ccc(Nc2ccccc2)cc1
Species: MOUSE, Strain/Sex: B6C3F1/FEMALE, Route: ORAL, Dose: 0, 3672, 8170 PPM IN DIET, TWA, Dose: 0, 3672, 8170 PPM IN DIET, TWA
  carcinogen call: inactive; negative
Species: MOUSE, Strain/Sex: B6C3F1/MALE, Route: ORAL, Dose: 0, 2057, 4114 PPM IN DIET, TWA, Dose: 0, 2057, 4114 PPM IN DIET, TWA
  carcinogen call: inactive; negative
Species: RAT, Strain/Sex: F344/FEMALE, Route: ORAL, Dose: 0, 600, 1200 PPM IN DIET, Dose: 0, 600, 1200 PPM IN DIET
  carcinogen call: inactive; negative
Species: RAT, Strain/Sex: F344/MALE, Route: ORAL, Dose: 0, 600, 1200 PPM IN DIET, Dose: 0, 600, 1200 PPM IN DIET
  carcinogen call: inactive; negative

## Cc1ccc2cc3c(ccc4ccccc43)c3c2c1C=C3
Species: MOUSE, Strain/Sex: SWISS/FEMALE, Route: DERMAL, Dose: 0.2 UMOL IN 33.4 µL ACETONE TO SHAVED DORSAL SKIN 2/WK FOR 20 WK (STUDY DURATION: 52 WK), Tumor Site: Type of Lesion: SKIN: PAPILLOMA, KERATOACANTHOMA, EPIDERMAL CARCINOMA
  carcinogen call: active; positive

## C=C/C=N/O
Species: HAMSTER, Strain/Sex: SYRIAN/MALE, Route: GAVAGE, Dose: 0, 2 MG/WK FOR 53 WK (STUDY DURATION: 92 WK)
  carcinogen call: inactive; negative
Species: RAT, Strain/Sex: F344/FEMALE, Route: ORAL, Dose: 0, 320 MG/L IN DRINKING WATER 5 D/WK FOR 100 WK (STUDY DURATION: 130 WK)
  carcinogen call: inactive; negative
Species: RAT, Strain/Sex: F344/FEMALE, Route: ORAL, Dose: 0, 800 MG/L IN DRINKING WATER 5 D/WK FOR 30 WK (STUDY DURATION: 130 WK)
  carcinogen call: inactive; negative
Species: RAT, Strain/Sex: F344/MALE, Route: ORAL, Dose: 0, 320 MG/L IN DRINKING WATER 5 D/WK FOR 100 WK (STUDY DURATION: 130 WK)
  carcinogen call: inactive; negative
Species: RAT, Strain/Sex: F344/MALE, Route: ORAL, Dose: 0, 800 MG/L IN DRINKING WATER 5 D/WK FOR 30 WK (STUDY DURATION: 130 WK)
  carcinogen call: inactive; negative

## NC(Cc1cnc[nH]1)C(=O)O (configuration not stated)
Species: RAT, Strain/Sex: F344/FEMALE, Route: ORAL, Dose: 0, 1.25, 2.5% IN DIET FOR 104 WK (STUDY DURATION: 107 WK), Dose: 0, 1.25, 2.5% IN DIET FOR 104 WK (STUDY DURATION: 107 WK)
  carcinogen call: inactive; negative
Species: RAT, Strain/Sex: F344/MALE, Route: ORAL, Dose: 0, 1.25, 2.5% IN DIET FOR 104 WK (STUDY DURATION: 107 WK), Dose: 0, 1.25, 2.5% IN DIET FOR 104 WK (STUDY DURATION: 107 WK)
  carcinogen call: inactive; negative

## CC(C)(Oc1ccc(C2CC2(Cl)Cl)cc1)C(=O)O (configuration not stated)
Species: RAT, Strain/Sex: F344/MALE, Route: ORAL, Dose: 10 MG/KG IN DIET FOR 60 WK, Tumor Site: Type of Lesion: LIVER: HEPATOCELLULAR CARCINOMA
  carcinogen call: active; positive

## O=[N+]([O-])c1cccc2cccnc12
Species: RAT, Strain/Sex: F344/MALE,FEMALE, Route: ORAL, Dose: 0.1% IN DIET FOR 2 YR, Tumor Site: Type of Lesion: FORESTOMACH: SQUAMOUS CELL PAPILLOMA, CARCINOMA
  carcinogen call: active; positive

## CC(=O)Nc1ccc(-c2ccc(NC(C)=O)cc2)cc1
Species: RAT, Route: INTRAPERITONEAL, Tumor Site: Type of Lesion: EAR (CANAL), MAMMARY GLAND, INTEGUMENTARY SYSTEM (SKIN), Tumor Site: Type of Lesion: EAR (CANAL), MAMMARY GLAND, INTEGUMENTARY SYSTEM (SKIN)
  carcinogen call: active; positive
Species: RAT, Route: ORAL, Tumor Site: Type of Lesion: EAR (CANAL)
  carcinogen call: active; positive
Species: RAT, Route: SUBCUTANEOUS, Tumor Site: Type of Lesion: MAMMARY GLAND, LIVER, EAR (ZYMBAL GLAND), Tumor Site: Type of Lesion: MAMMARY GLAND, LIVER, EAR (ZYMBAL GLAND)
  carcinogen call: active; positive

## CCCCCCCCCCCCCC(=O)O[C@@H]1[C@@H](C)[C@@]2(O)[C@@H](C=C(CO)C[C@]3(O)C(=O)C(C)=C[C@@H]23)[C@@H]2C(C)(C)[C@]12OC(C)=O
Species: MOUSE, Strain/Sex: BALB/MALE, FEMALE, Route: DERMAL, Dose: 0, 18 NMOL IN ACETONE 1/WK FOR 17 MO (STUDY DURATION: 24 MO), Tumor Site: Type of Lesion: SKIN: SQUAMOUS CELL PAPILLOMA
  carcinogen call: active; positive
Species: MOUSE, Strain/Sex: HR-HR/MALE, FEMALE, Route: DERMAL, Dose: 0, 18 NMOL IN ACETONE 1/WK FOR 18 MO (STUDY DURATION: 24 MO)
  carcinogen call: inactive; negative
Species: MOUSE, Strain/Sex: HR/HR/MALE, FEMALE, Route: DERMAL, Dose: 0, 20, 40, 100, 1000, 1200, 1394 NMOL TOTAL DOSE WITH RESPECTIVE ADMINISTRATIONS OF 20 NMOL ONCE, 2 NMOL TWICE, 20 NMOL, Dose: 0, 20, 40, 100, 1000, 1200, 1394 NMOL TOTAL DOSE WITH RESPECTIVE ADMINISTRATIONS OF 20 NMOL ONCE, 2 NMOL TWICE, 20 NMOL, Tumor Site: Type of Lesion: SKIN: TUMOR
  carcinogen call: active; positive

## CN(C)/C=N/c1nnc(/C=C/c2ccc([N+](=O)[O-])o2)o1
Species: RAT, Route: ORAL, Tumor Site: Type of Lesion: MAMMARY GLAND, INTESTINES
  carcinogen call: active; positive
